For assay [1], the target named is T1, programmed death-ligand 1 (PD-L1) (Homo sapiens, UniProt Q9NZQ7).
T1 construct: gene CD274; recombinant human PD-L1 protein
The assay can be described thus: intrinsic fluorescence quenching (Stern-Volmer, static quenching). Type of assay: binding.

Assay [2] concerns the target T2, programmed cell death protein 1 (PD-1) (Homo sapiens, UniProt Q15116).
T2 construct: gene PDCD1; human PD-1 protein
The assay is described as above. It is filed as binding.

The values that follow come from paper PMC6689002, “Anthocyanins, delphinidin-3-O-glucoside and cyanidin-3-O-glucoside, inhibit immune checkpoints in human colorectal cancer cells in vitro and in silico” (Scientific Reports, 2019).

T2 sequence (Q15116 25-288): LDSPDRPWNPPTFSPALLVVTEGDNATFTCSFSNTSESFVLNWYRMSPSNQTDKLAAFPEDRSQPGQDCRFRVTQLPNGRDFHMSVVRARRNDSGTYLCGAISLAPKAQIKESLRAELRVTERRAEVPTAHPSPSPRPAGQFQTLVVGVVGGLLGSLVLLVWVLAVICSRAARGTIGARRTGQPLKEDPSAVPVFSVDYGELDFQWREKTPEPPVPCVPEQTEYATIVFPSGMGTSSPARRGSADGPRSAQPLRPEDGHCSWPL
T1 sequence (Q9NZQ7 19-290): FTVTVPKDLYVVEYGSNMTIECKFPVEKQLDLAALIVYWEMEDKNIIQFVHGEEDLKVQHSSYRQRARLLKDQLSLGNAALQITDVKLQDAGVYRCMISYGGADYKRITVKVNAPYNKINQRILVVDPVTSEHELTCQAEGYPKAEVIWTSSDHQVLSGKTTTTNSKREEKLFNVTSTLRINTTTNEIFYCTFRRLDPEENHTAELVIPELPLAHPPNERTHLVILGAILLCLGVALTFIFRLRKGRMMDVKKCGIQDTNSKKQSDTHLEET

In the case of `OCC1OC(Oc2cc3c(O)cc(O)cc3[o+]c2-c2ccc(O)c(O)c2)C(O)C(O)C1O` (stereo not shown) [C3G, cyanidin-3-O-glucoside], the “intrinsic fluorescence quenching (Stern-Volmer, static quenching)” value was “C3G and D3G showed static quenching with both PD-1 and PD-L1” in assay [1]; “C3G and D3G showed static quenching with both PD-1 and PD-L1” in assay [2].
With `OCC1OC(Oc2cc3c(O)cc(O)cc3[o+]c2-c2cc(O)c(O)c(O)c2)C(O)C(O)C1O` (stereo not shown) [D3G, delphinidin-3-O-glucoside], the “intrinsic fluorescence quenching (Stern-Volmer, static quenching)” value in assay [1] was “C3G and D3G showed static quenching with both PD-1 and PD-L1”; in assay [2], “C3G and D3G showed static quenching with both PD-1 and PD-L1”.
